# Read-outs that look alike come from different tables or passages of the source.
# Legend:
# in vivo = assay: in vivo; design: species or system Balb/c mice
# Method: ND-11543 was dissolved in 20% TPGS (d-α tocopheryl polyethylene glycol 1000 succinate) to give a fine white suspension which was dosed at 100, 300 and 500 mg/kg orally on three consecutive days, 3 mice per dose group. Mice were observed 10 min, 1, 2, 4 hr after dosing and then daily afterwards. During the observations, humane handling practices and animal welfare regulations were strictly followed.
# H37Rv-Mtb = assay: MIC against replicating H37Rv-Mtb in liquid media; assay type: cell-based, Mycobacterium tuberculosis; details: Mycobacterium tuberculosis, H37RV, 120 h, replicating, 5 days, OD590
# Single dose plasma PK = assay type: in vivo, Balb/c mice
# Method: Basic pharmacokinetic analysis was determined after a single dose of 200 mg/kg with and without the administration of 100 mg/kg of 1-aminobenzotriazole (ABT) (Sigma, #A3940) given 2 hr by gavage prior to ND-11543 administration. ABT (100 mg/kg dose) was administered by oral gavage in 0.5% (w/v) methyl cellulose 400 solution. ND-11543 (200 mg/kg dose) was prepared in 20% TPGS and dosed orally 2 hr after ABT administration. Female mice (6–8 week old Balb/c from Charles River) were rested one to two weeks before dosing. Blood was collected from the mice at time points of 0.5, 2, 4, 8, 12 and 24 hr after drug administration. Blood samples (< 100 μL each) for all time points were collected via the mandibular vein in plasma collector tubes, centrifuged and plasma (< 50 μL each) was frozen until further use. Plasma samples were analyzed by LC/MS to determine drug plasma levels.
# [1] = test system: murine Raw 264.7 macrophages; details: mouse
# in vitro [2] = details: human, Caco-2
# [3] = Relative solubility by turbidity in microbiological medium; details: pH 6.8, aqueous buffer, kinetic from dmso stock, lowest concentration at which compound was insoluble (turbidity)
# Method: The relative solubility of compounds was determined in microbiological medium using turbidity as a measure [27]. A serial dilution of compounds was prepared in DMSO and then transferred to microbiological medium at pH 6.8.
# in vitro [4] = assay type: in vitro ADME; details: human, s9, NADPH, 37°C
# Method: Compounds were tested for microsomal stability using pooled human liver S9 microsomes. Microsomes were incubated with the test compound at 37°C in the presence of the co-factor NADPH. The reaction was terminated, the supernatant recovered, and test compounds quantified by LC-MS/MS. A fixed concentration of test compound was tested in duplicate at 5 timepoints and compound stability was expressed as a function of time. Human liver microsomes were purchased from Celsis (catalog number X008068).
# M. tuberculosis Erdman = assay: Chronic Balb/c model of TB infection; assay type: in vivo, Balb/c mice; details: 200 mg/kg
# [5] = test system: M. tuberculosis GC1237 (Mtb-GFP) in Raw 264.7 macrophages; assay: Intracellular mycobacterial replication assay in macrophages; assay type: cell-based; details: Mycobacterium tuberculosis, 120 h, 5 days, read-out: MIC, intracellular M. tuberculosis growth in macrophages
# CYP3A4 = target: T1, CYP3A4 (Homo sapiens, UniProt P08684); assay: biochemical; assay type: in vitro ADME
# T1 construct: human liver microsomes were incubated with a probe substrate for each CYP isoform; from tissue; host or cells: human liver microsomes
# Method: (§1) Compounds were tested for inhibition of six cytochrome P450 enzyme isoforms—CYP2B6, CYP2C8, CYP2C9, CYP2C19, CYP2D6 and CYP3A4 [27]. For each assay, human liver microsomes were incubated with a probe substrate for each CYP isoform in the presence of compound. Compounds were prepared as a 7-point dilution series in acetonitrile:DMSO (9:1). The final DMSO content in the reaction mixture was equal in all solutions used within an assay and was < 0.2%. Samples were run in duplicate.
# CYP2B6 = target: T2, CYP2B6 (Homo sapiens, UniProt P20813); assay: biochemical; assay type: in vitro ADME; details: human liver microsomes; read-out: Cytochrome P450 Inhibition IC50 CYP2B6
# T2 construct: human liver microsomes were incubated with a probe substrate for each CYP isoform; from tissue; host or cells: human liver microsomes
# Method: as §1
# CYP2C19 = target: T3, CYP2C19 (Homo sapiens, UniProt P33261); assay: biochemical; assay type: in vitro ADME; details: human liver microsomes; read-out: Cytochrome P450 Inhibition IC50 CYP2C19
# T3 construct: human liver microsomes were incubated with a probe substrate for each CYP isoform; from tissue; host or cells: human liver microsomes
# Method: as §1
# CYP2C8 = target: T4, CYP2C8 (Homo sapiens, UniProt P10632); assay: biochemical; assay type: in vitro ADME; details: human liver microsomes; read-out: Cytochrome P450 Inhibition IC50 CYP2C8
# T4 construct: human liver microsomes were incubated with a probe substrate for each CYP isoform; from tissue; host or cells: human liver microsomes
# Method: as §1
# CYP2C9 = target: T5, CYP2C9 (Homo sapiens, UniProt P11712); assay: biochemical; assay type: in vitro ADME; details: human liver microsomes; read-out: Cytochrome P450 Inhibition IC50 CYP2C9
# T5 construct: human liver microsomes were incubated with a probe substrate for each CYP isoform; from tissue; host or cells: human liver microsomes
# Method: as §1
# CYP2D6 = target: T6, CYP2D6 (Homo sapiens, UniProt P10635); assay: biochemical; assay type: in vitro ADME; details: human liver microsomes; read-out: Cytochrome P450 Inhibition IC50 CYP2D6
# T6 construct: human liver microsomes were incubated with a probe substrate for each CYP isoform; from tissue; host or cells: human liver microsomes
# Method: as §1
# [6] = test system: CYP2B6, CYP2C8, CYP2C9, CYP2C19, CYP2D6, CYP3A4; assay: in vitro; assay type: in vitro ADME; details: human; range over isoforms, >10 to >20; read-out: IC50 against all the major cytochrome P450 isoforms
# Method: as §1
# VERO cell line = assay: Eukaryotic cytotoxicity (CellTiter-Glo); assay type: cell-based, African green monkey; details: Chlorocebus sabaeus, 48 h, 2-day incubation, read-out: VERO Toxicity IC50
# Method: Cytotoxicity was tested against the African green monkey adult kidney cell line (VERO, ATCC CRL-1586) as described. Compounds were tested as 10-point, 3-fold serial dilutions in DMSO (final assay concentration of 1% DMSO) and viability was measured using CellTiter-Glo (Promega). Inhibition curves were fitted using the Levenberg–Marquardt algorithm. IC50 was defined as the concentration required to reduce cell viability by 50% after 2-day incubation.
# [7] = test system: M. tuberculosis strain H37Rv-LUX; assay: microbe, parasite or virus in culture; assay type: cell-based; details: Mycobacterium tuberculosis, read-out: LORA MIC
# T1 sequence (P08684 whole entry, canonical isoform): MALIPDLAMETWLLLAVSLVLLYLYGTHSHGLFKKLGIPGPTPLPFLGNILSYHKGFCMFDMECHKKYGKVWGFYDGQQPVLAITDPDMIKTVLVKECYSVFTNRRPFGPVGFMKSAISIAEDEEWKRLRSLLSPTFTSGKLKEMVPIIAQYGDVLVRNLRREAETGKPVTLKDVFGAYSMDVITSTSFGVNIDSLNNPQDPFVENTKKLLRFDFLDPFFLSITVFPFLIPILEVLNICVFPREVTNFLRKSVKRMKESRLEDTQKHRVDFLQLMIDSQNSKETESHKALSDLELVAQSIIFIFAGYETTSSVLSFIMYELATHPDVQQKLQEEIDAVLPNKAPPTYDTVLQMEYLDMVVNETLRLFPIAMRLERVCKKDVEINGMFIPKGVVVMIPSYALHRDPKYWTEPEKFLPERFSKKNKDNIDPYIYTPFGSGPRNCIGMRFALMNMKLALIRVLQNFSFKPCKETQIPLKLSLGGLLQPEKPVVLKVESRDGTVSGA
# T5 sequence (P11712 whole entry, canonical isoform): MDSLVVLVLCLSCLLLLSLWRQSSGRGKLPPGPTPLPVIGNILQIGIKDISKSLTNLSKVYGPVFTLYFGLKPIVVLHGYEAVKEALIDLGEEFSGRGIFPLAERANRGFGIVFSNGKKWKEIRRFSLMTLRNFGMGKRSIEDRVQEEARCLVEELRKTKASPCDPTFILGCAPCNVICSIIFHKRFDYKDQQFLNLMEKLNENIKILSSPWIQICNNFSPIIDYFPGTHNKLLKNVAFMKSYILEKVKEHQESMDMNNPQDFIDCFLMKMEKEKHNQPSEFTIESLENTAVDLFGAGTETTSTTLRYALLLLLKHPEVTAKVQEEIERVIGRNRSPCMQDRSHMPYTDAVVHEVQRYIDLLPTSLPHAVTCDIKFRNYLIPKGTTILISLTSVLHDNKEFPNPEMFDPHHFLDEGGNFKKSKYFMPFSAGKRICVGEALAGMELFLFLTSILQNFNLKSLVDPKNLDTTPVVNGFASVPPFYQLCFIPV
# T2 sequence (P20813 whole entry, canonical isoform): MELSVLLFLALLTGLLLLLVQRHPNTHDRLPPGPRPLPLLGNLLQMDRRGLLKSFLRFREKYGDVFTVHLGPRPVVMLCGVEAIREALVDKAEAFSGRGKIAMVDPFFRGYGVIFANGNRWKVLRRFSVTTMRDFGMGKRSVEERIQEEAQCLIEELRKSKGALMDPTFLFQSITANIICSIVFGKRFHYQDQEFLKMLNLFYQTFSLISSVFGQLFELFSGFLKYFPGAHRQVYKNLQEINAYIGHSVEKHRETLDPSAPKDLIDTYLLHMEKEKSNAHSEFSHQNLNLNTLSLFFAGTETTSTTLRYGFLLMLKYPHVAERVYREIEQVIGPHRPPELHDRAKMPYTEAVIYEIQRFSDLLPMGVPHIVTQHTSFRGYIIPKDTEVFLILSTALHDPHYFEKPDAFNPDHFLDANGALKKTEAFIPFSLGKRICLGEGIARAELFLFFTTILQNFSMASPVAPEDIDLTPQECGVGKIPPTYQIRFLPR
# T6 sequence (P10635 whole entry, canonical isoform): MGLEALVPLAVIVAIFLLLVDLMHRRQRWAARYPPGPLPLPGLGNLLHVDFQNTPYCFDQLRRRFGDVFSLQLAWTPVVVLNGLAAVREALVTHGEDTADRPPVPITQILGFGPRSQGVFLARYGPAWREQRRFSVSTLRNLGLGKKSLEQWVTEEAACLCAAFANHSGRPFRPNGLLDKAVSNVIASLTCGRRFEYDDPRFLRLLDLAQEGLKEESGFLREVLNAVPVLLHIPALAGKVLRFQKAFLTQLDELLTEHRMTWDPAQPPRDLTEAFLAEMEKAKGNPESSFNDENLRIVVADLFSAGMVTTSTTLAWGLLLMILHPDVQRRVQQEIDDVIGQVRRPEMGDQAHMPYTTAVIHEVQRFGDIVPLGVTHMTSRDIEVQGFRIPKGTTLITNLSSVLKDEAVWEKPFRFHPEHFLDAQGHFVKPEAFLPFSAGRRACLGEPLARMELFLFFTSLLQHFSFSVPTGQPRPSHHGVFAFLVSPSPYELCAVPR
# T4 sequence (P10632 whole entry, canonical isoform): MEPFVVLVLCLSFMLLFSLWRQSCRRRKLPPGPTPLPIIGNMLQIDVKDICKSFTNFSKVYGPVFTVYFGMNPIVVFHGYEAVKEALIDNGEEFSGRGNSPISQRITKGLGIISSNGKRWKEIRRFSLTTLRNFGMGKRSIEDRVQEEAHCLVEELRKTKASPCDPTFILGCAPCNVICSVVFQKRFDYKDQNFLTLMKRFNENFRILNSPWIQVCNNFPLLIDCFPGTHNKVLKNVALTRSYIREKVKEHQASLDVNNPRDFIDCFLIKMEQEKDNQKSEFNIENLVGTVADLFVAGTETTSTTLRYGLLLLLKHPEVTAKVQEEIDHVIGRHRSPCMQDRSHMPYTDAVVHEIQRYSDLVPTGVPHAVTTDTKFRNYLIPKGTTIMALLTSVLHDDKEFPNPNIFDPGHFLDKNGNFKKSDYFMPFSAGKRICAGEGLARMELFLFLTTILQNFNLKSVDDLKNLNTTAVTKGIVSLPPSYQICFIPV
# T3 sequence (P33261 whole entry, canonical isoform): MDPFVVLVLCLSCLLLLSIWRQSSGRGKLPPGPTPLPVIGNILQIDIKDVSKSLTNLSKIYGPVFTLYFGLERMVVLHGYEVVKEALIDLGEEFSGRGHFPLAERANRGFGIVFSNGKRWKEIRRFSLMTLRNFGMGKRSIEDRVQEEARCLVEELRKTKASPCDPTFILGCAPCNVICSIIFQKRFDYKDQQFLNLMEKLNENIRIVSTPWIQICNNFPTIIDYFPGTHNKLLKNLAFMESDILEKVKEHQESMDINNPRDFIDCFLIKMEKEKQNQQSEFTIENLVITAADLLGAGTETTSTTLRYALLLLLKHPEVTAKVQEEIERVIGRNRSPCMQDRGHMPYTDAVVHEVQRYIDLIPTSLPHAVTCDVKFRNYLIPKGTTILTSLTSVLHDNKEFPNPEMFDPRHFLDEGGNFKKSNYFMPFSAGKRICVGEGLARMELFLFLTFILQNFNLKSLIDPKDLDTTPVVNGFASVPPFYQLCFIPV
smiles,measurement,setting,value
"Cc1cn2c(C(=O)NCc3ccc(N4CCN(c5ccc(C(F)(F)F)cn5)CC4)c(F)c3)c(C)nc2s1 [ND-11543, N-(3-fluoro-4-(4-(5-(trifluoromethyl)pyridin-2-yl)piperazin-1-yl)benzyl)-2,6-dimethylimidazo[2,1-b]thiazole-5-carboxamide]",MTD,"in vivo; female, Balb/c, mouse, in vivo, mice, oral, three consecutive daily doses, read-out: Maximum Tolerated Dose, MTD",> 500 mg/kg
same,Acute toxicity observation,"in vivo; mice, 100, 300 and 500 mg/kg oral",No acute toxicity was observed
same,MIC,H37Rv-Mtb,8 nM
same,AUC(0–24)/Dose,"Single dose plasma PK; 200 mg/kg oral, without ABT",58.5 ng·h/mL/mg/kg
same,Cmax/Dose,"Single dose plasma PK; 200 mg/kg oral, without ABT",3.22 ng/mL/mg/kg
same,Relative Bioavailability [(TA+ABT) / TA],"Single dose plasma PK; female, Balb/c, mouse, in vivo",318.25
same,half-life,"Single dose plasma PK; female, Balb/c, mouse, plasma, 200 mg/kg oral, without ABT",> 1440 min
same,Macrophage toxicity concentration relative to MIC,[1],4 and 8-fold higher than their MIC
same,Papp A→B at 1 h,in vitro [2],0.376 ×10⁻⁶ cm/s
same,Papp A→B at 2 h,in vitro [2],0.731 ×10⁻⁶ cm/s
same,Papp B→A at 1 h,in vitro [2],1.09 ×10⁻⁶ cm/s
same,Papp B→A at 2 h,in vitro [2],0.758 ×10⁻⁶ cm/s
same,efflux ratio,in vitro [2],2.23
same,solubility,[3],50 µM
same,microsomal CLint,in vitro [4]; read-out: Human liver S9 Microsomes CL,81.3 µL/min/mg
same,half-life,in vitro [4]; read-out: Human liver S9 Microsomes T ½,28.4 min
same,Log reduction vs Control (Lung),"M. tuberculosis Erdman; 4 weeks, without ABT",0.30 log10 CFU
same,Log reduction vs Control (Spleen),"M. tuberculosis Erdman; 4 weeks, without ABT",0.36 log10 CFU
same,Lung Log10 CFU ±SEM,"M. tuberculosis Erdman; ERDMAN, 672 h",5.49 ± 0.08 Log10 CFU
same,Spleen Log10 CFU ±SEM,"M. tuberculosis Erdman; ERDMAN, 672 h",4.64 ± 0.11 Log10 CFU
same,MIC,[5],0.0625 µM
same,IC50,"CYP3A4; DDI assay including midazolam, read-out: Cytochrome P450 Inhibition IC50 CYP3A4 (midazolam)",> 20 µM
same,IC50,"CYP3A4; DDI assay including tetosterone, read-out: Cytochrome P450 Inhibition IC50 CYP3A4 (tetosterone)",> 20 µM
same,IC50,CYP2B6,> 20 µM
same,IC50,CYP2C19,> 20 µM
same,IC50,CYP2C8,18.4 µM
same,IC50,CYP2C9,10.2 µM
same,IC50,CYP2D6,> 20 µM
same,IC50,[6],> 10 µM
same,IC50,VERO cell line,> 50 µM
same,MIC,[7],1.1 µM

# — publication PMC6944458, “Intracellular and in vivo evaluation of imidazo[2,1-b]thiazole-5-carboxamide anti-tuberculosis compounds” (PLoS ONE, 2020)
